Results: ChEMBL document CHEMBL1123003, “Synthesis and interaction of 5-(substituted-phenyl)-3-methyl-6,7-dihydropyrazolo[4,3-e] [1,4]diazepin-8(7H)-ones with benzodiazepine receptors in rat cerebral cortex” (J Med Chem, 1985)

Target: GABA-A receptor; anion channel
Assay: Displacement of [3H]flunitrazepam from GABA-A benzodiazepine receptor in synaptic membranes of rat cerebral cortex
Format: cell membranes

| Structure (SMILES) | IC50 [µM] |
| --- | --- |
| Cc1n[nH]c2c1N=C(c1ccccc1)CNC2=O | 4.4 |
| COc1ccc(C2=Nc3c(C)n[nH]c3C(=O)NC2)cc1 | 46.5 |
| Cc1n[nH]c2c1N=C(c1ccc(Cl)cc1)CNC2=O | 10 |
| Cc1n[nH]c2c1N=C(c1ccc(-c3ccccc3)cc1)CNC2=O | > 100 |
| Cc1n[nH]c2c1N=C(c1ccc([N+](=O)[O-])cc1)CNC2=O | 30.5 |
| Cc1n[nH]c2c1N=C(c1ccc(Br)cc1)CNC2=O | 22.3 |
| CNC1=Nc2ccc(Cl)cc2C(c2ccccc2)=[N+]([O-])C1 [CHLORDIAZEPOXIDE] | 0.91 |
| CCn1nc(C)c2c1C(c1ccccc1)=NCC(=O)N2 [RIPAZEPAM] | 0.67 |
